For series [1], the system named is CD8^+ T cells from HIV^+ subjects. Nature of the series: FACS-based intracellular staining (ICS) for cytolysin (perforin) and cytotoxins (GrzA, GrzB) in CD8+ T cells. The conditions noted are these: HIV+ human subjects; for Cyto: CD8+ T-cell cytotoxins (perforin, GrzA & B), frequency of responders: FIV epitope peptide; for Cyto (cytolysin/cytotoxin production), frequency of responders: FIV peptides; for CyCD8: CD8+ T-cell cytolysin/cytotoxins (perforin, GrzA & B), frequency of responders: HIV-1 epitope peptide, threshold ≥0.2%. Here is the method: The overlapping peptide pools of FIV and HIV-1 structural and enzyme proteins were used to stimulate the […] (PBMC) and the T cells from HIV^+ subjects as previously described for epitope mapping of HIV-1 and FIV p24 and reverse transcriptase (RT) (Sanou et al., 2013; Roff et al., 2015). The individual peptides in those peptide pools with positive responses to either interferon-γ (IFNγ) production and/or T-cell proliferation were determined with IFNγ ELISpot analysis and CFSE-based CD3^+CD4^+ and CD3^+CD8^+ T-cell proliferation analyses followed by the FACS-based intracellular staining (ICS) for cytolysin (perforin) and cytotoxin (granzyme A [GrzA] and GrzB) (Sanou et al., 2013; Roff et al., 2015). Besides viral p24 and RT proteins, the identical approach was used to identify anti-HIV/FIV T-cell epitopes on viral matrix (MA), nucleocapsid (NC), protease (PR), RNAase, integrase (IN), surface envelope (SU Env), and transmembrane envelope (TM Env) (FIG. 12).
Since our goal is to develop HIV vaccine for human use, the HIV peptides (Table 10) counterpart of the cross-reactive FIV peptides shown in Table 9 were tested with PBMC and T cells from HIV^+ subjects. The immune functions analyzed were human IFNγ production by ELISpot, cytolysin/cytotoxin production by ICS, and CFSE-based proliferation of CD3^+CD4^+ and CD3^+CD8^+ T cells from HIV^+ subjects (Table 10, the first set of results). In addition, the Los Alamos National Laboratories (LANL) database was used to identify the HLA allele(s) of the HIV epitope sequence with CTL activity that can exist within the sequence of the conserved counterpart HIV peptide (Table 9, LANL CTL). The bold HLA class-I supertypes and the bold 2-digit alleles are those on the “Optimal CD8^+ CTL Epitopes” list and those without bold are alleles for potential CTL epitope. […] The HLA class II such as HLA-DRB1 has yet to be fully classified into supertypes, and therefore the 4-digit resolution nomenclatures for the HLA-DRB1 alleles are shown.
The threshold for positive IFNγ and IL2 ELISpot responses is ≥50 spot-forming units (SFU) per 10^6 PBMC. The threshold for CFSE-based CD4^+ and CD8^+ T-cell proliferation is ≥2% CD4^+ T-cell CFSE^low or CD8^+ T-cell CFSE^low. The threshold of FACS-based intracellular cytokine staining (ICS) is ≥0.2%. […] The nine FIV peptides in black were used in the current MAP vaccine trial, whereas the 13 peptides in blue were not used. […] The MAPs and their corresponding peptide(s) were also tested for their ability to enhance or suppress in vitro FIV infection of feline PBMC (E/S of peptides and E/S of MAP).
The counterpart HIV-1 peptides of the FIV peptides were also tested for immunogenicity using PBMC and T cells from HIV^+ human subjects. […] The HRT7-1 and HRT7-2 were also tested with cells from HIV^+ subjects on ART. The threshold for positive IFNγ ELISpot response is ≥75 spot-forming units (SFU) per 10^6 PBMC. The threshold for CFSE-based CD4^+ (CD4^+ T) and CD8^+ (CD8^+ T) T-cell proliferation is ≥2% CD4^+ T-cell CFSE^low or CD8^+ T-cell CFSE^low. The threshold of intracellular cytokine staining (ICS) of FACS-based cytolysin (perforin) and cytotoxins (granzymes A and B) in CD4^+ T cells (CyCD4) and CD8^+ T cells (CyCD8) is ≥0.2%. […] The nine HIV-1 peptides in black are the counterpart FIV peptides used in the current MAP vaccine trial, whereas the 13 peptides in blue were not.

In series [2] the test system is PBMC from FIV-vaccinated cats. As to the kind of experiment: Feline IFNγ ELISpot of PBMC from vaccinated cats. The format is cell-based, cat. The protocol:
(§1) IFNγ and IL2 ELISpot analyses were performed using feline IFNγ ELISpot and feline IL2 ELISpot kits (R&D Systems, Cat# SEL764 and SEL1890) as described. The threshold is defined as ≥50 spot forming units (SFU) per 1×10^6 PBMC when counted with MVS ELISpot Reader (MVS Pacific, LLC). Each result is an average of the duplicate samples after subtraction of the average value of the media controls.
(§2) Concurrently, the overlapping peptide pools of FIV structural/enzyme proteins were used to stimulate PBMC and T cells from FIV-vaccinated cats. These cats were vaccinated with prototype dual-subtype FIV vaccine which was the prototype to our commercial FIV vaccine (Coleman et al., 2014). The feline assays (Example 1) equivalent to those of human assays (Sanou et al., 2013; Roff et al., 2015) were used except for ICS analysis. In place of ICS for cytolysin/cytotoxins, IL2 ELISpot analysis was performed. […] The results for FIV-vaccinated cats included IFNγ and IL2 productions and CD3^+CD4+ and CD3^+CD8^+ T-cell proliferation (Table 9, the second set of results).
(§3) The feline IFNγ and L2 ELISpot analyses of PBMC to FIV MAPs and peptides were performed as previously described (Abbott et al. (2012)) using feline IFNγ modular kit (R&D Systems, Minneapolis, Minn.) and feline IL2 modular kit (R&D Systems). All results shown in the figures (FIGS. 8A-1, 8B-1, 8A-2, 8B-2, 8A-3, 8B-3) are after subtracting the average value of the results from all control cats.
(§4) The second parameter evaluated was the ability of the peripheral blood mononuclear cells (PBMC) from vaccinated and control cats to produce IL2 and interferon-γ (IFNγ) proteins in responses to FIV MAPs and peptides (FIGS. 8A-1, 8A-2, 8A-3, 8B-1, 8B-2, 8B-3) using feline IL2 and IFNγ ELISpot assays (Aranyos et al. (2016); Abbott et al. (2012)). IL2 enhances the proliferation of FIV-specific CD4^+ T cells and CD8^+ T cells. IFNγ is known enhance the FIV-specific CTL activities in vaccinated cats (Abbas et al. (2015)).

Series [3] deals with PBMC from FIV-vaccinated cats. Nature of the series: Feline IL2 ELISpot of PBMC from vaccinated cats. The format is cell-based, cat. Here is the method: as §1, §2, §3, §4
The test system of series [4] is feline CD3^+CD4^+ T cells. Nature of the series: CFSE-based feline CD3+CD4+ T-cell proliferation. Set-up: species or system cat. Conditions: FIV-vaccinated cats. The protocol: (§5) Carboxyfluorescein diacetate succinimide ester (CFSE)-proliferation was performed according to the manufacturer's protocol (Invitrogen, Grand Island, N.Y.) and processed using a previously described modification. The modification consisted of 2.5×10^5 CFSE-labeled feline PBMC stimulated for 5 days (37° C., 5% CO2) with 4 μg/mL peptide in culture media (RPMI medium 25 µg/mL gentamycin, and 10% heat-inactivated fetal bovine serum (FBS)). Peptide pools consisted of 3-5 overlapping peptides of 4 μg/mL each. The antibodies used for flow cytometry based proliferation analysis consisted of murine anti-feline (Fe) CD3 monoclonal antibody (MAb clone kindly provided by Drs. Yorihiro Nishimura and Takayuki Miyazawa; described in [32]) combined with secondary goat anti-mouse IgG3-APC/CY7 MAb (SouthernBiotech, Birmingham, Ala.; Cat#1100-19); and murine anti-FeCD4-PE MAb (SouthernBiotech, Cat#8130-09); and murine anti-FeCD8 MAb (MAb clone kindly provided by Dr. Nazareth Gengozian, described in [33]) with secondary goat anti-mouse IgG2a-PE/CY7 (Southern Biotech, Cat#1080-17). The murine anti-B220-APC MAb for detecting feline B cells (SouthernBiotech, Cat#1665-11) and previously described MAbs for CFSE were used for FACS phenotyping. Both FACS phenotyping and CFSE-proliferation analyses were performed with BD LSRII and FACSDiva™ Software (BD Biosciences, San Jose, Calif.). The final value for each sample was derived after subtraction of the average value of the media controls using a positive threshold of ≥1 CFSE^low.
as §2
(§6) Carboxyfluorescein diacetate succinimide ester (CFSE)-proliferation analysis was according to the manufacturer's protocol (Invitrogen-Fisher, Carlsbad, Calif.) and processed as previously described (Roff et al. (2015)) using the following modifications: anti-feline CD3 antibody ((clone NZM1), a generous gift from T. Miyazawa (Univ. of Tokyo, Japan)) in combination with APC-conjugated anti-mouse IgG3 (Southern Biotech, Birmingham, Ala.), PE-conjugated anti-feline CD4 antibody (Southern Biotech), and anti-feline CD8 antibody (gift from N. Gengozian, University of Tennessee (Gengozian et al. (1997))) in combination with PE/Cy7-conjugated anti-mouse IgG2b (Southern Biotech) to detect the proliferation of feline CD3^+CD4+ T cells and feline […]. All results shown in the figures (FIGS. 7A-1, 7B-1, 7A-2, 7B-2, 7A-3, 7B-3) are after subtracting the average value of each results from all control cats. The threshold of CFSE proliferation is ≥0.5 CFSE^low. […]

The test system of series [5] is feline CD3^+CD8^+ T cells. Nature of the series: CFSE-based feline CD3+CD8+ T-cell proliferation. Details: species or system cat. Conditions: FIV-vaccinated cats. The protocol:
as §5, §2, §6

Residues, ends and D or L forms follow the SMILES beside them.

`CC[C@H](C)[C@H](NC(=O)[C@H](CO)NC(=O)[C@H](CC(C)C)NC(=O)[C@H](CO)NC(=O)[C@H](CCC(N)=O)NC(=O)[C@H](CCCCN)NC(=O)[C@H](CC(C)C)NC(=O)[C@H](Cc1ccc(O)cc1)NC(=O)[C@H](CC(C)C)NC(=O)[C@H](CCCCN)NC(=O)[C@@H](NC(=O)[C@H](CCC(=O)O)NC(=O)[C@H](C)N)C(C)C)C(=O)N[C@@H](C)C(=O)O` [Fp14-3] (H-AEVKLYLKQSLSIA-OH; N-terminus and C-terminus assumed): in series [1], the “Cyto: CD8+ T-cell cytotoxins (perforin, GrzA & B), frequency of responders” value is on record as “++++ (>54% (++++))” and the “Cyto (cytolysin/cytotoxin production), frequency of responders” value is reported as “++++ (>54% (++++))”.

For `CC[C@H](C)[C@H](NC(=O)[C@H](CO)NC(=O)[C@H](CC(C)C)NC(=O)[C@H](CO)NC(=O)[C@H](CCC(N)=O)NC(=O)[C@H](CCCCN)NC(=O)[C@H](CC(C)C)NC(=O)[C@H](Cc1ccc(O)cc1)NC(=O)[C@H](CC(C)C)NC(=O)[C@@H](N)CCCCN)C(=O)N[C@@H](C)C(=O)N[C@@H](CC(N)=O)C(=O)N[C@@H](C)C(=O)O` [Fp14-4] (H-KLYLKQSLSIANA-OH; N-terminus and C-terminus assumed), in series [1], the “Cyto: CD8+ T-cell cytotoxins (perforin, GrzA & B), frequency of responders” value is on record as “++++ (>54% (++++))” and the “Cyto (cytolysin/cytotoxin production), frequency of responders” value is “++++ (>54% (++++))”.

Take `CC[C@H](C)[C@H](NC(=O)[C@@H](N)CCCCN)C(=O)N[C@@H](CCCNC(=N)N)C(=O)N[C@@H](CC(C)C)C(=O)N[C@@H](CCCNC(=N)N)C(=O)N1CCC[C@H]1C(=O)NCC(=O)NCC(=O)N[C@@H](CCCCN)C(=O)N[C@@H](CCCCN)C(=O)N[C@@H](CCCCN)C(=O)N[C@@H](Cc1ccc(O)cc1)C(=O)O` [HMA1]: the “CyCD8: CD8+ T-cell cytolysin/cytotoxins (perforin, GrzA & B), frequency of responders” value (“CyCD8: CD8+ T-cell cytolysin/cytotoxins” below) in series [1] is given as “− (0%-1.4% (−))”.

`CC(C)C[C@H](NC(=O)[C@@H](NC(=O)[C@H](C)NC(=O)[C@@H](NC(=O)[C@@H](NC(=O)[C@H](CC(N)=O)NC(=O)[C@H](Cc1ccc(O)cc1)NC(=O)[C@H](CC(C)C)NC(=O)[C@H](CO)NC(=O)[C@H](CCCNC(=N)N)NC(=O)[C@H](CC(C)C)NC(=O)[C@H](CCC(=O)O)NC(=O)[C@H](CCC(=O)O)NC(=O)[C@H](CO)NC(=O)CN)[C@@H](C)O)C(C)C)[C@@H](C)O)C(=O)O` [HMA2]: in series [1], the “CyCD8: CD8+ T-cell cytolysin/cytotoxins” value is recorded as “− (0%-1.4% (−))”.

Consider `CC[C@H](C)[C@H](NC(=O)[C@H](CCCCN)NC(=O)[C@@H](NC(=O)[C@@H](NC(=O)[C@@H](NC(=O)[C@H](CC(C)C)NC(=O)[C@@H]1CCCN1C(=O)[C@H](CCCNC(=N)N)NC(=O)[C@H](CCC(N)=O)NC(=O)[C@H](Cc1c[nH]c2ccccc12)NC(=O)[C@H](CC(C)C)NC(=O)[C@@H](N)[C@@H](C)O)C(C)C)[C@@H](C)O)[C@@H](C)CC)C(=O)NCC(=O)NCC(=O)O` [HPR1], for which the “CyCD8: CD8+ T-cell cytolysin/cytotoxins” value in series [1] was “− (0%-1.4% (−))”.

Consider `CC[C@H](C)[C@H](N)C(=O)N1CCC[C@H]1C(=O)N[C@H](C(=O)NCC(=O)N[C@@H](CCC(=O)O)C(=O)N[C@H](C(=O)N[C@@H](Cc1ccc(O)cc1)C(=O)N[C@@H](CCCCN)C(=O)N[C@@H](CCCNC(=N)N)C(=O)N[C@@H](Cc1c[nH]c2ccccc12)C(=O)N[C@H](C(=O)N[C@H](C(=O)N[C@@H](CC(C)C)C(=O)NCC(=O)O)[C@@H](C)CC)[C@@H](C)CC)[C@@H](C)CC)C(C)C` [Hp9-3 (10-3)], for which the “CyCD8: CD8+ T-cell cytolysin/cytotoxins” value in series [1] is on record as “+++ (40.1%-54% (+++))”.

On to AAAPVNQMQQAVMPSA [FNC2], for which the “IFNγ, frequency of responders” value in series [2] (FIV epitope peptide, FIV-vaccinated cats) is reported as “++++ (>54% (++++))”; in series [2] (FIV peptides, FIV-vaccinated cats (prototype dual-subtype vaccine)) it was “++++ (>54% (++++))”. Further, the “IL2, frequency of responders” value in series [3] (FIV epitope peptide) and in series [3] (FIV peptides) was “++++ (>54% (++++))” throughout. In addition, in series [4] (FIV epitope peptide), the “CD4, frequency of responders” value is recorded as “— (0%-1.4% (—))”. Also, in series [4] (FIV peptides), the “CDC4^+ T (T-cell proliferation), frequency of responders” value is on record as “— (0%-1.4%(—))”. In addition, the “CD8, frequency of responders” value in series [5] (FIV epitope peptide) is reported as “++++ (>54% (++++))”. The “CD8^+ T (T-cell proliferation), frequency of responders” value in series [5] (FIV peptides) is recorded as “++++ (>54% (++++))”.

These data come from patent publication US10758609B2, “Cross-reactive T-cell epitopes of HIV, SIV, and FIV for vaccines in humans and cats” (priority 2015, dated 2020).
